Data set [1] is described as follows: Stability of RDP-1 and RDP-2 with biological reductant (GSH). Type of data set: physicochemical. As to conditions: 1 μM probe, 20 mM GSH, pH 7.4 buffer. Here is the method: RDP-1 or RDP-2 were added to buffer (20 mM HEPES, 150 mM NaCl, 0.1% Triton X-100, pH 7.4, degassed by bubbling N2 through the solution for 1 h) prewarmed to 37° C. in a heating block for 5 min containing no reducing agent or GSH using a multichannel pipet to at least three wells of a black-walled clear-bottom 96-well plate (Nunc, Roskilde, Denmark; Final concentration: 1 μM RDP-1/RDP-2, 20 mM GSH, 20 mM HEPES, 150 mM NaCl, 0.1% Triton X-100, pH 7.4, 4.1% DMSO). Fluorescent intensities (λex1=430/25 nm, λeml=470/24 nm; λex2=480/20, λem2=575/40; gain=75; No. of flashes=10) were obtained as a ratio of em1/em2 in kinetic mode in 30 s intervals for 30 min.

For data set [2], the system named is catalytically inactive APTs (APT1(S119A), APT2(S122A)). The data set is described as follows: In vitro kinetic assays of RDP-1 and RDP-2 with catalytically inactive enzymes. Type of data set: biochemical, human. As to conditions: 10 times more APT1(S119A) and APT2(S122A) enzyme.
Data set [3] has as its target T1, APT2 (Homo sapiens, UniProt O95372).
T1 construct: His-tag; made in house; host or cells: E. coli ROSETTA DE3
The data set is described as follows: In vitro kinetic assays of RDP-1 and RDP-2 with APT2. As to conditions: 1 μM probe, 200 nM enzyme, 20 min. It counts as biochemical. Here is the method:
(§1) 100 μL of 400 nM of APT1 or APT2, or buffer without added enzymes, were added to buffer (20 mM HEPES, 150 mM NaCl, 0.1% Triton X-100, pH 7.4, degassed by bubbling N2 through the solution for 1 h) and prewarmed to 37° C. in a heating block for 5 min. The buffer solutions were then added using a multichannel pipet to a black-walled clear-bottom 96-well plate (Nunc, Roskilde, Denmark) containing 100 μL of 2 μM RDP-1 or RDP-2 in buffer (20 mM HEPES, 150 mM NaCl, 0.1% Triton X-100, pH 7.4, 0.15% DMSO) that had been pre-warmed in the plate reader at 37° C. for 5 min, resulting in a final concentration of 200 nM APT1 or APT2, 1 μM RDP-1 or RDP-2, and 0.1% DMSO. Fluorescent intensities λex1=430/24 nm, λem1=470/24 nm; λex2=480/20, λem2=575/40; gain=75; No. of flashes=8) were obtained as a ratio of em1/em2 in kinetic mode in 30 s intervals for 30 min.

Data set [4] has as its target T2, APT1 (Homo sapiens, UniProt O75608).
T2 construct: His-tag; made in house; host or cells: E. coli ROSETTA DE3
Kind of data set: In vitro kinetic assays of RDP-1 and RDP-2 with APT1. As to conditions: 1 μM probe, 200 nM enzyme, 20 min. It counts as biochemical. The method, then: as §1

The subject of data set [5] is HEK293T cells. Kind of data set: Fluorescence imaging of RDP-1 and RDP-2 with HEK293T cells. Type of data set: cell-based, human. As to conditions: 1 μM probe for 10 min. Here is the method: HEK293T were plated with […] of DMEM (Gibco, Gaithersburg, Md., United States of America; High Glucose, Glutamax, 10% FBS) a four well chambered imaging dish (D35C4-20-1.5-N, Cellvis, Mountain View, Calif., United States of America) which were precoated with 4 μg Poly-D-lysine (30-70 kilodalton (KDa), Alfa Aesar, Haverhill, Mass., United States of America) for 2 h at room temperature or overnight at 4° C. and grown to ca. 80% confluence prior to imaging. 30 min before the addition of the RDP, the cell culture media was removed and cells were washed with 500 μL of serum-free DMEM (Gibco, Gaithersburg, Md., United States of America, High Glucose, Glutamax, no FBS). The media was then replaced with 500 μL of serum-free DMEM containing 100 nM Mitotracker Deep Red (Thermo Fisher Scientific, Waltham, Mass., United States of America; to assist in focusing and processing) and either 0.1% DMSO carrier as a control or Palm B, ML348, or ML349 in DMSO and incubated for 30 min at 37° C. and 5% CO2. The media was removed, the cells were washed with 500 μL of Live Cell Imaging Solution (Thermo Fisher Scientific, Waltham, Mass., United States of America), and 500 μL of 1 μM RDP-1 or RDP-2 along with the appropriate inhibitor or DMSO as control in Live Cell Imaging Solution was added to each well. After incubation for 10 min at 37° C. and 5% CO2, the cells were washed with 500 μL Live Cell Imaging Solution and 500 μL of Live Cell Imaging Solution containing DMSO or the appropriate inhibitor was added to the cells immediately before images were obtained on an inverted epi-fluorescence microscope (Olympus IX83; Olympus Corporation, Tokyo, Japan) attached with EMCCD camera (Photometrics EVOLVE™ Delta; Photometrics, Tucson, Ariz., United States of America) with 40× oil objective (N/A 1.3) for RDP-1 (excitation filter 1 430/24 nm, dichroic chroma 89007, emission filter 1 470/24 nm, exposure time 100 ms, EM gain 80, excitation filter 2 480/20 nm, dichroic chroma 49014, emission filter 2 575/40 nm, exposure time 70 ms, EM gain 50) or for RDP-2 (excitation filter 1 430/24 nm, dichroic chroma 89007, emission filter 1 470/24 nm, exposure time 70 ms, EM gain 50, excitation filter 2 480/20, dichroic chroma 49014, emission filter 2 575/40 nm, exposure time 50 ms, EM gain 30), brightfield (exposure time 50 ms, EM gain 30), and MitoTracker Deep Red: (excitation filter 640/30 nm, emission filter 705/72 nm, dichroic chroma 89016, exposure time 15 ms, EM gain 15). Analyses were performed in ImageJ as described below. Each experiment was repeated at least three separate times with identical results.
The probe channel data were expressed as a ratio of the blue channel divided by the green channel and normalized to the average fluorescence intensity of the control conditions. To eliminate errors from autofluorescence, the images were thresholded using the bluer channel images at the same minimum level that included the maximum number of cells in focus (as determined visually by the mitocondrial dye) while limiting the signal from areas where cells are not present. The average value of all nonzero pixels from the blue channel:green channel ratio image were calculated in ImageJ for three different measurements from each experiment. The percent deprotected was estimated by imaging RDP-1/2 in buffer (20 mM HEPES, 150 mM NaCl, 0.1% Triton X-100, pH 7.4, 0.1% DMSO) and for dye deprotected with 20 mM DTT in buffer (20 mM HEPES, 150 mM NaCl, 0.1% Triton X-100, pH 7.4, 0.1% DMSO) for 1 h at room temperature before aliquoted into individual tubes and stored at −80° C. A fresh aliquot of the solution was thawed for each experiment and diluted to 250 nM (RDP-1) or 500 nM (RDP-2) in buffer (20 mM HEPES, 150 mM NaCl, 0.1% Triton X-100, pH 7.4, 10 mM DTT) and allowed to equilibrate for 30 m before being imaged. […]

T1 sequence (O95372 whole entry): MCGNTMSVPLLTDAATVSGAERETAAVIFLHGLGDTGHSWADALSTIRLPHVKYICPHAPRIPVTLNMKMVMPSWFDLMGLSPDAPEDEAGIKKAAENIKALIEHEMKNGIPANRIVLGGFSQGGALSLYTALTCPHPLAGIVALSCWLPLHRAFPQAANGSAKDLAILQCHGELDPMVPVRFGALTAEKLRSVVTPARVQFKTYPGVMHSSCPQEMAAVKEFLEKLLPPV
T2 sequence (O75608 whole entry): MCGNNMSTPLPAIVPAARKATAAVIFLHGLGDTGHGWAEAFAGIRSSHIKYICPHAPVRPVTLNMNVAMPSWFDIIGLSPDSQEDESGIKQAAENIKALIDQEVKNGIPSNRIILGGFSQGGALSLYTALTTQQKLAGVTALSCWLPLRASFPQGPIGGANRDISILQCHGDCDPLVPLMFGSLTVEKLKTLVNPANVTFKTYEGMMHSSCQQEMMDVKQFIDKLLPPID

On to `CCCCCCCC(=O)SC[C@@H](C(=O)N[C@@H](CCCCN)C(=O)OC)N(C)C(=O)/C(C#N)=C/c1c(C)c2cc3c4c(c2oc1=O)CCCN4CCC3` [RDP-2, (5S)-5-[(2R)-2-[(2E)-2-cyano-N-methyl-3-{6-methyl-4-oxo-3-oxa-13-azatetracyclo[7.7.1.0^2,7.0^13,17]heptadeca-1,5,7,9(17)-tetraen-5-yl}prop-2-enamido]-3-(octanoylsulfanyl)propanamido]-6-methoxy-6-oxohexan-1-aminium], for which the “response to 20 mM glutathione” value in data set [1] is listed as “Neither RDP-1 nor RDP-2 responds”. In data set [2], the “response to catalytically inactive APTs” value was “Neither RDP-1 nor RDP-2 responds”. Further, the “ratio change of ratiometric response” value in data set [3] and in data set [4] was 1.9 to 16 each time. Moreover, in data set [5], the “depalmitoylation of probe (percent deprotected dye)” value is given as around 18%.
Turning to `CCCCCCCC(=O)SC[C@@H](C(=O)NC)N(C)C(=O)/C(C#N)=C/c1c(C)c2cc3c4c(c2oc1=O)CCCN4CCC3` [RDP-1, (2E)-2-cyano-N-methyl-3-{6-methyl-4-oxo-3-oxa-13-azatetracyclo[7.7.1.0^2,7.0^13,17]heptadeca-1,5,7,9(17)-tetraen-5-yl}-N-[(1R)-1-(methylcarbamoyl)-2-(octanoylsulfanyl)ethyl]prop-2-enamide], the “response to 20 mM glutathione” value in data set [1] is “Neither RDP-1 nor RDP-2 responds”. Moreover, in data set [2], the “response to catalytically inactive APTs” value is reported as “Neither RDP-1 nor RDP-2 responds”. The “ratio change of ratiometric response” value in data set [3] and in data set [4] was 0.7 to 34 throughout. Moreover, the “depalmitoylation of probe (percent deprotected dye)” value in data set [5] was “about 28%”.

Source of the values: US10413583B2, “Synthetic substrates for enzymes that catalyze reactions of modified cysteines and related methods” (The University of Chicago, priority 2016, dated 2019).
